Target: T1, human Proteasome (20S proteasome, chymotryptic activity) (Homo sapiens, UniProt P28074)
T1 construct: purchased Immatics, Tübingen
Test: chymotryptic activity of the 20S proteasome (Suc-LLVT-AMC substrate, fluorescence)
Assay type: biochemical
Details: for human Proteasome IC50: given in words only
Method: The chymotryptic activity of the 20S proteasome (Immatics, Tüibingen) was determined using a Tecan Ultra plate reader and Suc-LLVT-AMC as substrate (Bachem). In the wells of a black 96 well polypropylene plate, 2 μl of the respective inhibitor dissolved in DMSO were mixed with 50 μl substrate solution (25 mM HEPES pH 7.5 at 20° C., 0.5 mM EDTA and Suc-LLVT-AMC (in the appropriate concentration) and the reaction was initiated by adding 150 μl proteasome solution (1.3 μg/ml 20S proteasome in 25 mM HEPES pH 7.5 at 20° C., 0.5 mM EDTA, 0.033% (w/v) SDS). Substrate hydrolysis was followed by fluorescence spectroscopy (excitation wavelength: 360 nm; emission wavelength: 465 nm) for 20 min at 30° C. and initial velocities were calculated and expressed as change in relative fluorescence units (RFU) per second.

SMILES | human Proteasome IC50 | IC50 (unit nm [sic]) [nM] | other results
CC(C)(C)OC(=O)NC(Cc1ccc(Br)cc1)C(=O)NC(Cc1ccc2ccccc2c1)C(=O)NC(/C=N/N1CC(=O)NC1=O)Cc1ccccc1 (stereo not drawn) [Compound 7] | nanomolar |  | 
O=C1CN(/N=C/C(Cc2ccccc2)NC(=O)C(Cc2c[nH]c3ccccc23)NC(=O)C(Cc2c[nH]c3ccccc23)NC(=O)Cc2cccc(Oc3ccccc3)c2)C(=O)N1 (stereo not drawn) [Compound 3] |  | 224 | 
O=C(/C=C/c1ccccc1)NC(/C=N\N1CC(=O)NC1=O)Cc1ccccc1 (stereo not drawn) [Compound 12] |  |  | IC50 (unit μm [sic]): 2210 nM
O=C1CN(/N=C/C(Cc2ccccc2)NC(=O)C(Cc2c[nH]c3ccccc23)NC(=O)C(Cc2c[nH]c3ccccc23)NC(=O)CCCCC2SCC3NC(=O)NC32)C(=O)N1 (stereo not drawn) [Compound 2] |  |  | IC50 (unit cell prints nM): 76 nM
O=C1CN(/N=C\C(Cc2ccccc2)NC(=O)C2C=Cc3cc(Cl)ccc3O2)C(=O)N1 (stereo not drawn) [Compound 11] |  |  | IC50 (unit μm [sic]): 3540 nM
O=C1CN(/N=C/C(Cc2ccccc2)NC(=O)C(Cc2c[nH]c3ccccc23)NC(=O)C(Cc2c[nH]c3ccccc23)NC(=O)OCc2cccnc2)C(=O)N1 (stereo not drawn) [Compound 4] |  | 61 | 
O=C1CN(/N=C/C(Cc2ccccc2)NC(=O)C(Cc2ccc3ccccc3c2)NC(=O)C(Cc2ccc(F)cc2)NC(=O)OCc2ccccc2)C(=O)N1 (stereo not drawn) [Compound 9] | nanomolar |  | 
O=C1CN(/N=C/C(Cc2ccccc2)NC(=O)C(Cc2c[nH]c3ccccc23)NC(=O)C(Cc2c[nH]c3ccccc23)NC(=O)OCc2ccccc2)C(=O)N1 (stereo not drawn) [Compound 1] |  | 157 | 
O=C1CN(/N=C/C(Cc2ccccc2)NC(=O)C(Cc2c[nH]c3ccccc23)NC(=O)C(Cc2c[nH]c3ccccc23)NC(=O)OCc2cnccn2)C(=O)N1 (stereo not drawn) [Compound 8] |  | 133 | 
COc1cc(C(=O)NC(/C=N/N2CC(=O)NC2=O)Cc2ccccc2)nc(OC)n1 (stereo not drawn) [Compound 14] |  |  | IC50 (unit μm [sic]): 2960 nM
O=C1CN(N=CC(Cc2ccccc2)NC(=O)C(Cc2ccc3ccccc3c2)NC(=O)C(Cc2ccc(Br)cc2)NC(=O)OCc2ccccc2)C(=O)N1 (stereo not drawn) [Compound 5] | nanomolar |  | 
O=C1CN(N=CC(Cc2ccccc2)NC(=O)C(Cc2ccc3ccccc3c2)NC(=O)C(Cc2ccc(Br)cc2)NC(=O)OCc2cccnc2)C(=O)N1 (stereo not drawn) [Compound 6] | nanomolar |  | 

Source: patent US7531517B2, “Inhibitors of cancer cell, T-cell and keratinocyte proliferation” (4SC AG, priority 2005, dated 2009)
